This assay addresses T1, CB1 receptor (Homo sapiens, UniProt P21554).
T1 construct: expressed in transfected cells
Nature of the assay: [35S]-GTPγS binding assay on membranes from cells stably transfected with the CB1 gene, antagonism of CP55940. Type of assay: biochemical. The note with it: half maximal inhibition of GTPγS binding, EC80 concentration of agonist CP55940, 30° C., 45 min. Here is the method: 10 μg of membranes prepared from cells stably transfected with the CB1 gene were suspended in […] of 100 mM NaCl, 5 mM MgCl2, 1 mM EDTA, 50 mM HEPES (pH 7.4), 1 mM DTT, 0.1% BSA and 100 μM GDP. To this was added an EC80 concentration of agonist (CP55940), the required concentration of test compound and 0.1 μCi [^35S]-GTPγS. The reaction was allowed to proceed at 30° C. for 45 min. Samples were then transferred on to GF/B filters using a cell harvester and washed with wash buffer (50 mM Tris (pH 7.4), 5 mM MgCl2, 50 mM NaCl). Filters were then covered with scintilant and counted for the amount of [^35S]-GTPγS retained by the filter.
Activity is measured in the absence of all ligands (minimum activity) or in the presence of an EC80 concentration of CP55940 (maximum activity). These activities are set as 0% and 100% activity respectively. At various concentrations of novel ligand, activity is calculated as a percentage of the maximum activity and plotted. The data are fitted using the equation y=A+((B−A)/1+((C/x) ÙD)) and the IC50 value determined as the concentration required to give half maximal inhibition of GTPγS binding under the conditions used.
On the technique in general: Binding of GTPγS marks nucleotide exchange on a G protein.

As usually defined, the IC50 is the point on the concentration scale where inhibition reaches its midpoint.

T1 sequence (P21554 whole entry): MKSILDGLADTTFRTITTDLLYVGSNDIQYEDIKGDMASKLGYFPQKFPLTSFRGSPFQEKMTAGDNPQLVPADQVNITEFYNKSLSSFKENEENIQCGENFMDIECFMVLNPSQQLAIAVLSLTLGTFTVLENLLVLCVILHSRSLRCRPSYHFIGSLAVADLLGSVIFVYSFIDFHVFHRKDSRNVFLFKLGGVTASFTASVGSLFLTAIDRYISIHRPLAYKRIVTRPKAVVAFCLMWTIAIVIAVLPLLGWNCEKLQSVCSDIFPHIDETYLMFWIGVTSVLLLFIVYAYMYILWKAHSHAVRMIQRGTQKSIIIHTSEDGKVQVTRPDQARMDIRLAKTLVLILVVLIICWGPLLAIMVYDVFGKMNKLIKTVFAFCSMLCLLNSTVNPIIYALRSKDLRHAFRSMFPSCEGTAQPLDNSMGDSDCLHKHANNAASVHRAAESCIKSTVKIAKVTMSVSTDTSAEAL

Regarding `Cc1c(C(=O)Nc2ccc(F)nc2)nc(-c2ccc(Cl)cc2Cl)n1-c1ccc(OS(=O)(=O)CCC(F)(F)F)cc1` [Example 3, 4-(2-(2,4-dichlorophenyl)-4-{[(6-fluoropyridin-3-yl)amino]carbonyl}-5-methyl-1H-imidazol-1-yl)phenyl 3,3,3-trifluoropropane-1-sulfonate], the concentration for half-maximal inhibition (IC50) turned out to be 1.2 nM.

The values above are taken from US20080306115A1, “Midazole-4-Carboxamide Derivatives For Use As Cb1 Modulators” (priority 2005, published 2008).
